Counter-ions that a name gives are not always drawn. Like-named read-outs stand apart in the source and are kept apart here.
Key:
[1] = test system: NCI-H292 lung cancer cells; assay: FDA drug screening, complete media vs cholesterol-free media without statin (TABLE 1); assay type: cell-based, human
[2] = test system: NCI-H292 lung cancer cells; assay: FDA drug screening, complete media vs cholesterol-free media with simvastatin (TABLE 2); assay type: cell-based, human
[3] = NCI-H292 cells, cholesterol-free media without statin
[4] = complete vs cholesterol-free media, greater than 0 enhanced anti-cancer activity, about 0 neutral, below 0 antagonists
[5] = NCI-H292 cells, drug in cholesterol-free media with simvastatin 0.04 μM
[6] = NCI-H292 cells, drug in complete media
[7] = complete media vs cholesterol-free media + simvastatin (0.04 μM), >0 enhanced anti-cancer activity, about 0 neutral, <0 antagonist
[8] = Complete minus Cholesterol-free, greater than 0 enhanced anti-cancer activity, about 0 neutral, below 0 antagonists
[9] = NCI-H292 cells in cholesterol-free media without statin
[10] = NCI-H292 cells in complete media
[11] = NCI-H292 cells, cholesterol-free media with simvastatin 0.04 μM, FDA drug library screen (TABLE 2)
[12] = NCI-H292 cells, complete media, FDA drug library screen (TABLE 2)
[13] = complete media minus cholesterol-free media + simvastatin (0.04 μM), >0 enhanced anti-cancer activity, about 0 neutral, <0 antagonist
[14] = Complete minus Cholesterol-free, >0 enhanced anti-cancer activity, about 0 neutral, <0 antagonist
[15] = NCI-H292 cells, FDA drug library screen, cholesterol-free media with simvastatin 0.04 μM
[16] = NCI-H292 cells, FDA drug library screen, complete media
[17] = complete media minus cholesterol-free media + simvastatin, >0 enhanced anti-cancer activity, about 0 neutral, <0 antagonist
[18] = NCI-H292 cells, cholesterol-free media without statin, FDA drug library screen
[19] = NCI-H292 cells, complete media, FDA drug library screen
[20] = NCI-H292 cells, FDA library drug in cholesterol-free media with simvastatin 0.04 μM
[21] = NCI-H292 cells, FDA library drug in complete media
[22] = complete vs cholesterol-free media, […]
[23] = complete media minus cholesterol-free media + simvastatin, […]
[24] = Complete minus Cholesterol-free, greater than 0 enhanced anti-cancer activity, about 0 neutral, below 0 antagonist
[25] = NCI-H292 cells, FDA drug library screen, cholesterol-free media without statin
[26] = NCI-H292 cells, cholesterol-free media with simvastatin 0.04 μM, cell growth value in FDA drug screen
[27] = NCI-H292 cells, complete media, cell growth value in FDA drug screen

## CCC(c1ccccc1)c1c(O)c2ccccc2oc1=O (centres unmarked) [Phenprocoumon]
[1]; [3]
  Cholesterol-free: 1.312
[1]; NCI-H292 cells, complete media
  Complete: 0.8729
[1]; [4]
  Difference: −0.44
[2]; [5]
  Cholesterol-free media + simvastatin (0.04 μM): 1.071
[2]; [6]
  Complete Media: 0.9061
[2]; [7]
  Difference: −0.16

## CC1Cc2ccccc2N1NC(=O)c1ccc(Cl)c(S(N)(=O)=O)c1 (centres unmarked) [Indapamide]
[1]; [8]
  Difference: −0.63
[1]; [9]
  Cholesterol-free: 1.388
[1]; [10]
  Complete: 0.7593
[2]; [5]
  Cholesterol-free media + simvastatin (0.04 μM): 1.217
[2]; [6]
  Complete Media: 0.9676
[2]; [7]
  Difference: −0.25

## COc1cc2c(cc1OC)C1CC(=O)C(CC(C)C)CN1CC2 (centres unmarked) [Tetrabenazine]
[1]; [3]
  Cholesterol-free: 1.615
[1]; NCI-H292 cells, complete media
  Complete: 1.162
[1]; [4]
  Difference: −0.45
[2]; [5]
  Cholesterol-free media + simvastatin (0.04 μM): 1.249
[2]; [6]
  Complete Media: 1.01
[2]; [7]
  Difference: −0.24

## COc1nc(N)nc2c1ncn2[C@@H]1O[C@H](CO)[C@@H](O)[C@@H]1O [Nelarabine]
[1]; [8]
  Difference: −0.59
[1]; [9]
  Cholesterol-free: 1.291
[1]; [10]
  Complete: 0.7049
[2]; [11]
  Cholesterol-free media + simvastatin (0.04 μM): 0.8366
[2]; [12]
  Complete Media: 0.8526
[2]; [13]
  Difference: 0.02

## CCCCC(F)(F)[C@@]1(O)CC[C@H]2[C@@H](CC(=O)[C@@H]2CCCCCCC(=O)O)O1 [Lubiprostone]
[1]; [14]
  Difference: −0.28
[1]; [3]
  Cholesterol-free: 1.064
[1]; NCI-H292 cells, complete media
  Complete: 0.7833
[2]; [15]
  Cholesterol-free media + simvastatin (0.04 μM): 1.061
[2]; [16]
  Complete Media: 1.267
[2]; [17]
  Difference: 0.21

## CO/N=C(\C(=O)N[C@@H]1C(=O)N2C(C(=O)[O-])=C(COC(N)=O)CS[C@H]12)c1ccco1.[Na+] [Cefuroxime (sodium)]
[1]; [14]
  Difference: −0.19
[1]; [3]
  Cholesterol-free: 1.146
[1]; NCI-H292 cells, complete media
  Complete: 0.9534
[2]; [15]
  Cholesterol-free media + simvastatin (0.04 μM): 1.129
[2]; [16]
  Complete Media: 1.035
[2]; [7]
  Difference: −0.09

## Cc1ccccc1C(=O)Nc1ccc(C(=O)N2CCCC(O)c3cc(Cl)ccc32)c(C)c1 (centres unmarked) [Tolvaptan]
[1]; [14]
  Difference: −0.06
[1]; [18]
  Cholesterol-free: 0.8732
[1]; [19]
  Complete: 0.8126
[2]; [20]
  Cholesterol-free media + simvastatin (0.04 μM): 2.102
[2]; [21]
  Complete Media: 1.367
[2]; [7]
  Difference: −0.73

## O=c1[nH]ccc2c(S(=O)(=O)N3CCCNCC3)cccc12 [Hydroxyfasudil]
[1]
  Cholesterol-free: 0.944
  Complete: 1.011
  Difference: 0.07
[2]
  Cholesterol-free media + simvastatin (0.04 μM): 0.9404
  Complete Media: 0.8562
  Difference: −0.08

## CC(=O)Oc1ccc(C(c2ccc(OC(C)=O)cc2)c2ccccn2)cc1 [Bisacodyl]
[1]; [14]
  Difference: −0.04
[1]; [18]
  Cholesterol-free: 0.799
[1]; [19]
  Complete: 0.7553
[2]; [11]
  Cholesterol-free media + simvastatin (0.04 μM): 0.934
[2]; [12]
  Complete Media: 0.9483
[2]; [13]
  Difference: 0.01

## C=C[C@H]1C[N@@]2CC[C@H]1C[C@@H]2[C@@H](O)c1ccnc2ccc(OC)cc12 [Quinidine hydrochloride monohydrate]
[1]; [14]
  Difference: 0.01
[1]; [18]
  Cholesterol-free: 1.211
[1]; [19]
  Complete: 1.222
[2]; [11]
  Cholesterol-free media + simvastatin (0.04 μM): 1.46
[2]; [12]
  Complete Media: 1.402
[2]; [13]
  Difference: −0.06

## CN1CCOC(c2ccccc2)c2ccccc2C1 (centres unmarked) [Nefopam (hydrochloride)]
[1]; [3]
  Cholesterol-free: 1.379
[1]; NCI-H292 cells, complete media
  Complete: 0.9673
[1]; [4]
  Difference: −0.41
[2]; [11]
  Cholesterol-free media + simvastatin (0.04 μM): 1.077
[2]; [12]
  Complete Media: 1.041
[2]; [13]
  Difference: −0.04

## CC(C)c1c(C(=O)Nc2ccccc2)c(-c2ccccc2)c(-c2ccc(F)cc2)n1CC[C@@H](O)C[C@@H](O)CC(=O)O [Atorvastatin (hemicalcium salt)]
[1]; [14]
  Difference: −0.21
[1]; [3]
  Cholesterol-free: 0.7947
[1]; NCI-H292 cells, complete media
  Complete: 0.5817
[2]; [15]
  Cholesterol-free media + simvastatin (0.04 μM): 0.4555
[2]; [16]
  Complete Media: 0.7295
[2]; [17]
  Difference: 0.27

## COc1cc2c3cc1Oc1c(OC)c(OC)cc4c1[C@@H](Cc1ccc(O)c(c1)Oc1ccc(cc1)C[C@@H]3N(C)CC2)N(C)CC4 [Berbamine (dihydrochloride)]
[1]; [3]
  Cholesterol-free: 1.782
[1]; NCI-H292 cells, complete media
  Complete: 1.401
[1]; [22]
  Difference: −0.38
[2]; [15]
  Cholesterol-free media + simvastatin (0.04 μM): 0.2857
[2]; [16]
  Complete Media: 1.04
[2]; [23]
  Difference: 0.75

## CO[C@@H]1[C@@H](OC(N)=O)[C@@H](O)[C@H](Oc2ccc3c(O)c(NC(=O)c4ccc(O)c(CC=C(C)C)c4)c(=O)oc3c2C)OC1(C)C [Novobiocin (Sodium)]
[1]; [24]
  Difference: −0.12
[1]; [25]
  Cholesterol-free: 1.193
[1]; [16]
  Complete: 1.072
[2]; [15]
  Cholesterol-free media + simvastatin (0.04 μM): 1.139
[2]; [16]
  Complete Media: 1.056
[2]; [7]
  Difference: −0.08

## C#C[C@]1(O)CC[C@H]2[C@@H]3CCC4=CC(=O)CCC4=C3C=C[C@@]21CC [Gestrinone]
[1]; [18]
  Cholesterol-free: 0.8898
[1]; [19]
  Complete: 2.026
[1]; [22]
  Difference: 1.14
[2]; [15]
  Cholesterol-free media + simvastatin (0.04 μM): 1.007
[2]; [16]
  Complete Media: 1.693
[2]; [23]
  Difference: 0.69

## Mafenide (Acetate)
[1]; [24]
  Difference: −0.16
[1]; [25]
  Cholesterol-free: 1.179
[1]; [16]
  Complete: 1.017
[2]; [26]
  Cholesterol-free media + simvastatin (0.04 μM): 0.8255
[2]; [27]
  Complete Media: 0.8982
[2]; [17]
  Difference: 0.07

## CC1=C(/C=C/C(C)=C/C=C/C(C)=C/C=C/C=C(C)/C=C/C=C(C)/C=C/C2=C(C)CCCC2(C)C)C(C)(C)CCC1 [β-Carotene]
[1]; [8]
  Difference: −0.67
[1]; [9]
  Cholesterol-free: 1.322
[1]; [10]
  Complete: 0.6506
[2]; [20]
  Cholesterol-free media + simvastatin (0.04 μM): 0.923
[2]; [21]
  Complete Media: 0.6081
[2]; [7]
  Difference: −0.31

## Fenoldopam (mesylate)
[1]; [24]
  Difference: −0.12
[1]; [25]
  Cholesterol-free: 0.8131
[1]; [16]
  Complete: 0.6882
[2]; [5]
  Cholesterol-free media + simvastatin (0.04 μM): 1.028
[2]; [6]
  Complete Media: 0.7708
[2]; [7]
  Difference: −0.26

## CN(C)C(=N)N=C(N)N [Metformin (hydrochloride)]
[1]; [18]
  Cholesterol-free: 0.9765
[1]; [19]
  Complete: 1.069
[1]; complete vs cholesterol-free media, >0 enhanced anti-cancer activity, about 0 neutral, <0 antagonist
  Difference: 0.09
[2]; [26]
  Cholesterol-free media + simvastatin (0.04 μM): 0.8358
[2]; [27]
  Complete Media: 0.8942
[2]; [17]
  Difference: 0.06

## [H]/N=C(\N/C(=N/[H])Nc1ccc(Cl)cc1)NC(C)C [Proguanil]
[1]; [24]
  Difference: −0.09
[1]; [25]
  Cholesterol-free: 1.148
[1]; [16]
  Complete: 1.059
[2]; [5]
  Cholesterol-free media + simvastatin (0.04 μM): 1.355
[2]; [7]
  Difference: −0.18

## CCC(C)(C)c1ccc(CC(C)CN2C[C@@H](C)O[C@@H](C)C2)cc1 (some centres unmarked) [Amorolfine (hydrochloride)]
[1]; [3]
  Cholesterol-free: 1.233
[1]; NCI-H292 cells, complete media
  Complete: 0.8449
[1]; [4]
  Difference: −0.39
[2]; [15]
  Cholesterol-free media + simvastatin (0.04 μM): 0.4078
[2]; [16]
  Complete Media: 1.021
[2]; [17]
  Difference: 0.61

## Merbromin
[1]; [18]
  Cholesterol-free: 1.294
[1]; [19]
  Complete: 1.544
[1]; [22]
  Difference: 0.25
[2]; [11]
  Cholesterol-free media + simvastatin (0.04 μM): 1.023
[2]; [12]
  Complete Media: 1.006
[2]; complete media minus cholesterol-free media + simvastatin (0.04 μM), […]
  Difference: −0.02

## CN(C)c1nc(N(C)C)nc(N(C)C)n1 [Altretamine]
[1]; [14]
  Difference: −0.04
[1]; [18]
  Cholesterol-free: 0.9853
[1]; [19]
  Complete: 0.9434
[2]; [5]
  Cholesterol-free media + simvastatin (0.04 μM): 1.135
[2]; [6]
  Complete Media: 0.9636
[2]; [7]
  Difference: −0.17

## Pazufloxacin (mesylate)
[1]; [14]
  Difference: −0.28
[1]; [3]
  Cholesterol-free: 0.9858
[1]; NCI-H292 cells, complete media
  Complete: 0.7051
[2]; [11]
  Cholesterol-free media + simvastatin (0.04 μM): 0.9357
[2]; [12]
  Complete Media: 0.9248
[2]; [13]
  Difference: −0.01
